# Assays:
# Type in all cases: biochemical
# [1] = biological target: T1, group V secreted PLA2 (sPLA2) (Homo sapiens, UniProt P39877); experiment: Lipidomics LC-MS mixed micelle PLA2 assay, sPLA2
# T1 sequence (P39877 21-138): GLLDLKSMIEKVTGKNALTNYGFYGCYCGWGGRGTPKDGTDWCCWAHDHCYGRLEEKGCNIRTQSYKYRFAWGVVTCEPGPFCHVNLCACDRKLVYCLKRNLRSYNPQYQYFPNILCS
# [2] = biological target: T1, group V secreted PLA2 (sPLA2); experiment: Traditional radioactive assay
# [3] = biological target: group VIA calcium-independent (iPLA2) (Homo sapiens, UniProt O60733); experiment: Lipidomics LC-MS mixed micelle PLA2 assay, iPLA2; conditions: for IC50: IC50, single phospholipid PAPC
# Sequence of group VIA calcium-independent (iPLA2) (O60733 whole entry): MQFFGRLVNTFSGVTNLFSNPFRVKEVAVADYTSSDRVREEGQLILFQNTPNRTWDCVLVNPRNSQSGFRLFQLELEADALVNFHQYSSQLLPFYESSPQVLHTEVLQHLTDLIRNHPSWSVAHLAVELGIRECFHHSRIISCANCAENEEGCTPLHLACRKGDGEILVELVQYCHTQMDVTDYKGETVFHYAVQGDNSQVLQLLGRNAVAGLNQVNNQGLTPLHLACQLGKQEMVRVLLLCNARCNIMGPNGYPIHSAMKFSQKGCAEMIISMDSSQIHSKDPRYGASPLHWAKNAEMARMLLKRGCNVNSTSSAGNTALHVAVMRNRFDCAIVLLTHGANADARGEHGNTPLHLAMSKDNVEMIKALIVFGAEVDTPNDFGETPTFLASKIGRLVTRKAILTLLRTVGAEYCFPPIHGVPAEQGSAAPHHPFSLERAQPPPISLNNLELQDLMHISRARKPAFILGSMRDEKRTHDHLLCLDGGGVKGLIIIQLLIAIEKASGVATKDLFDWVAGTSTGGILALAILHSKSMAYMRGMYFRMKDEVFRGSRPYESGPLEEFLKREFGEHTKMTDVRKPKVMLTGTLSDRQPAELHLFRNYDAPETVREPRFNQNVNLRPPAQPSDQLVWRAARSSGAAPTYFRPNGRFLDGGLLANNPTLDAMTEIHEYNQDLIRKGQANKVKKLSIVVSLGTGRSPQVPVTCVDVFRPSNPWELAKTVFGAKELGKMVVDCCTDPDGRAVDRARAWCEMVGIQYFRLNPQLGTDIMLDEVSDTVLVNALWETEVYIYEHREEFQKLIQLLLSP
SMILES,"IC50 ([1]; IC50, single phospholipid PAPC, 16:0 LPC detected, positive ion mode) [nM]","IC50 ([1]; IC50, single phospholipid PAPG, 16:0 LPG detected, positive ion mode) [nM]","IC50 ([1]; IC50, single phospholipid PAPG, free AA detected, negative ion mode) [nM]","XI(50) ([1]; single phospholipid PAPC, free AA detected, negative ion mode)",IC50 [2] [nM],"IC50 ([3]; 16:0 LPC detected, positive ion mode) [nM]","IC50 ([3]; free AA detected, negative ion mode) [nM]",greater inhibitor potency with PAPC as substrate versus PLPC ([3]; PAPC versus PLPC substrate)
CCc1c(C(=O)C(N)=O)c2c(OCC(=O)O)cccc2n1Cc1ccccc1 [Ly315920],104,18000,22000,0.0002,56,–,–,–
CCCCCCCCSCC(=O)C(F)(F)F [OTFP],–,–,–,–,–,58,34,approximately twofold

# Reference: publication PMC6398150 (Journal of Medicinal Chemistry, 2019)
